Source: ChEMBL document CHEMBL1201862, “PubChem BioAssay data set” (2004)
Values joined by “and” are separate entries in the source; they are usually repeats but may differ in a detail not shown here. Equal values may be shown once. Active and inactive are the calls of the source.

What was measured:
[1] = target: Peroxisome proliferator-activated receptor gamma/Nuclear receptor corepressor 2 (Homo sapiens, UniProt P37231+Q9Y618); experiment: Counterscreen for NR2E3 inverse agonists: TR-FRET-based biochemical high throughput dose response assay to identify inverse agonists of the interaction between peroxisome proliferator-activated receptor gamma (PPARg) and nuclear receptor co-repressor 2 (NCOR2).; type: functional
Sequence of Peroxisome proliferator-activated receptor gamma/Nuclear receptor corepressor 2 (P37231 whole entry): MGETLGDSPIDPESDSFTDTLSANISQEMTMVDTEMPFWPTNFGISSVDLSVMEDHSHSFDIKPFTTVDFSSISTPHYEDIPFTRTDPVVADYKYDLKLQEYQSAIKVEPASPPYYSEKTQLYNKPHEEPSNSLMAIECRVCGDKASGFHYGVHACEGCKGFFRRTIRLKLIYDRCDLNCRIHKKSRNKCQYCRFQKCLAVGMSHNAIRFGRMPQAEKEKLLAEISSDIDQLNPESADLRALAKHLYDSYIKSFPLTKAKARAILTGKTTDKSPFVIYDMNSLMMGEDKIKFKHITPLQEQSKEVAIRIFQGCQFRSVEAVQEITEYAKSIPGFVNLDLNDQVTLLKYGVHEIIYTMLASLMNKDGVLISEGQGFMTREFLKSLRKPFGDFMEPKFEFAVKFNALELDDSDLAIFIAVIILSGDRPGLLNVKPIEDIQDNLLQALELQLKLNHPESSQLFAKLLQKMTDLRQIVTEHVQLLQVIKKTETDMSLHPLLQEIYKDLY
Sequence of Peroxisome proliferator-activated receptor gamma/Nuclear receptor corepressor 2 (Q9Y618 whole entry): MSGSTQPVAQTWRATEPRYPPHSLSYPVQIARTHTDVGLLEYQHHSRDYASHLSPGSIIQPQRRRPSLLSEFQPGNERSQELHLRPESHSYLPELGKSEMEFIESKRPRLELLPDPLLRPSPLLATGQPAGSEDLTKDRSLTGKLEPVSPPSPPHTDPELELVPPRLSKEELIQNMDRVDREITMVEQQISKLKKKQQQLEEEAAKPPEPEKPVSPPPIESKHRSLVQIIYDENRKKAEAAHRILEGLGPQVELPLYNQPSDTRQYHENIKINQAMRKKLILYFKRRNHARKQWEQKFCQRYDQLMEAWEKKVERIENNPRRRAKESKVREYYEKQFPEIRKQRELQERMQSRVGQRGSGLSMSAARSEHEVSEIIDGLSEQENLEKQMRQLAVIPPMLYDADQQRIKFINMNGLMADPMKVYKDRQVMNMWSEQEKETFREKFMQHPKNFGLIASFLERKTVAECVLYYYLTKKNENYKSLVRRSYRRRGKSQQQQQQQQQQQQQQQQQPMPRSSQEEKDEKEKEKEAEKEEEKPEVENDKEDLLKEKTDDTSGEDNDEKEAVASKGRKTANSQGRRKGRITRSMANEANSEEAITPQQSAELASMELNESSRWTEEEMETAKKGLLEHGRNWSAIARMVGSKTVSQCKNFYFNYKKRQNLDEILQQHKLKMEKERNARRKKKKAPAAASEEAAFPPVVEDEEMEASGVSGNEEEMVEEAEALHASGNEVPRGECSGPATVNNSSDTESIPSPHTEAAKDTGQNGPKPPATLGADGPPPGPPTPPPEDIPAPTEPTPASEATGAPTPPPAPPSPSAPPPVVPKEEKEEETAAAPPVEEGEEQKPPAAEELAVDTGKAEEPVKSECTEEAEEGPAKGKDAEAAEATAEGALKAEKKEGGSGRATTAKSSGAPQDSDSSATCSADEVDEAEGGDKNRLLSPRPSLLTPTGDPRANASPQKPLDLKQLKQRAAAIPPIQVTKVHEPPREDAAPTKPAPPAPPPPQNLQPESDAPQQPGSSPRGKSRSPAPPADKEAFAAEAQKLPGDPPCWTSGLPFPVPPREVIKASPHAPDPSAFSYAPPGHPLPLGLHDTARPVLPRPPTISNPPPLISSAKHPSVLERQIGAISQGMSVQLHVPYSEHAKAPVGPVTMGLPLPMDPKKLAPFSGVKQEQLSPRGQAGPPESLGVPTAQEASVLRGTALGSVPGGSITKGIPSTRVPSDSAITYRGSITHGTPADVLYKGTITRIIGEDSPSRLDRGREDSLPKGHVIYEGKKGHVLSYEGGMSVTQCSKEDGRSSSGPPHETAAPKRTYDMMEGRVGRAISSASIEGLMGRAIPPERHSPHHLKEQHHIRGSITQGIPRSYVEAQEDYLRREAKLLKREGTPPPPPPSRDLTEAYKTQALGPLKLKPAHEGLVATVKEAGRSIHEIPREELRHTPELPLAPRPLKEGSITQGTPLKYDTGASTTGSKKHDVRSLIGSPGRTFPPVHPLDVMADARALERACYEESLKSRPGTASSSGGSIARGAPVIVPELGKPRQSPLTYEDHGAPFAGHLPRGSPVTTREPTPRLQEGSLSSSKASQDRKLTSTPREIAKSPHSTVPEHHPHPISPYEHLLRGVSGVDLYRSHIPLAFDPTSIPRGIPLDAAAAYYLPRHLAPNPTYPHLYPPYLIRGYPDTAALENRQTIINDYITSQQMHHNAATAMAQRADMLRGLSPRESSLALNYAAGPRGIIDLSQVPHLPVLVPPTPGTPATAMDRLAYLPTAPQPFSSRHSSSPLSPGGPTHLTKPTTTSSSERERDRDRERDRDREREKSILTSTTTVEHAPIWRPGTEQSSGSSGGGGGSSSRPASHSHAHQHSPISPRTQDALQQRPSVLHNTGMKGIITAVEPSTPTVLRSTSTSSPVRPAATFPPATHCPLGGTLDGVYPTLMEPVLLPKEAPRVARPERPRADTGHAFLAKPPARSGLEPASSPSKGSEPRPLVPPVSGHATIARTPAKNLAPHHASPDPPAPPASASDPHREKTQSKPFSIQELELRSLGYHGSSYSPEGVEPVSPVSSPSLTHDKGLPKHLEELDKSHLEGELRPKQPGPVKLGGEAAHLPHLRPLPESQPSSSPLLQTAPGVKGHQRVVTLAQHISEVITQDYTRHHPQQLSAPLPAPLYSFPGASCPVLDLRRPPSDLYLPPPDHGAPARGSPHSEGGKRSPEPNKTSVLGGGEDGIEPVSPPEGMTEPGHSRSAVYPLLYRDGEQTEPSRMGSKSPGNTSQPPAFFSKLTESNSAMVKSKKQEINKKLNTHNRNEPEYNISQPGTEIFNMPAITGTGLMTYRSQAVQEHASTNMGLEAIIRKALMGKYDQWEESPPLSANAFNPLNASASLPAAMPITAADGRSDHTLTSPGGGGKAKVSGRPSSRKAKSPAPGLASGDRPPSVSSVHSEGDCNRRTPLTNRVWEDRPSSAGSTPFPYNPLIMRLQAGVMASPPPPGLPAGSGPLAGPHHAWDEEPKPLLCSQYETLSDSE

[2] = target: Photoreceptor-specific nuclear receptor (Homo sapiens, UniProt Q9Y5X4); experiment: NR2E3 inverse agonists, dose response, biochemical, TR-FRET (AID 463256); type: functional
Sequence of Photoreceptor-specific nuclear receptor (Q9Y5X4 whole entry): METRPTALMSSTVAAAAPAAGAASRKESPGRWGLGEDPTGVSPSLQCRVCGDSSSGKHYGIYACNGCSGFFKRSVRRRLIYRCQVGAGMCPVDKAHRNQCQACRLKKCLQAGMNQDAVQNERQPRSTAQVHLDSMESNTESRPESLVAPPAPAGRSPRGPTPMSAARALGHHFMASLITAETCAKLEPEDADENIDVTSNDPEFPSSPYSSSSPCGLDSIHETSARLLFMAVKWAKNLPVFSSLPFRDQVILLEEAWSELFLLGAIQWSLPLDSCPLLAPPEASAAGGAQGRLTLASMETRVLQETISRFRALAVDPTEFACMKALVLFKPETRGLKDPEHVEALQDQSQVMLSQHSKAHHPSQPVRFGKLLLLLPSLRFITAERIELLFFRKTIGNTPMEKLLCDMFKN

Bcl-2-related protein A1 [3] = target: T1, Bcl-2-related protein A1 (Mus musculus, UniProt Q07440); experiment: Bfl-1 inhibitors, primary screen, biochemical, fluorescence polarization, FITC-Bid, mouse (AID 432)
T1 sequence (Q07440 whole entry): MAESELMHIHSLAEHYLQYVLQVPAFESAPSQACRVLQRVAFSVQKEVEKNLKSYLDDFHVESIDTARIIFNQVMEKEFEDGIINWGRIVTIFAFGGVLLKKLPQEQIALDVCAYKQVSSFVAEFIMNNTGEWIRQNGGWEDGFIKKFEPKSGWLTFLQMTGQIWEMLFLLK

[4] = target: Glyceraldehyde-3-phosphate dehydrogenase (Homo sapiens, UniProt P04406)
Sequence of Glyceraldehyde-3-phosphate dehydrogenase (P04406 whole entry): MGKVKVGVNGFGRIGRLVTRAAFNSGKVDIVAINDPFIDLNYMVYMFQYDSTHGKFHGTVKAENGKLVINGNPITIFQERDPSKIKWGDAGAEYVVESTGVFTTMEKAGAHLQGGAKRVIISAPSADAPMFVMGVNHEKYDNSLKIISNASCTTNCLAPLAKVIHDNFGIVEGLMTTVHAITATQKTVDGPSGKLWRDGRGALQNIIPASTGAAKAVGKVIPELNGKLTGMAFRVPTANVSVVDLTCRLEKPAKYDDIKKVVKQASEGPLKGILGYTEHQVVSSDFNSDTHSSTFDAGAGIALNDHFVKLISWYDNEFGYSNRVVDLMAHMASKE

Bcl-2-related protein A1 [5] = target: T1, Bcl-2-related protein A1; experiment: Bfl-1 inhibitors blocking BH3 peptide binding, confirmation, biochemical, TR-FRET, mouse Bfl-1 (AID 621);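 further: TR-FRET binding of GST-Bfl-1 to FITC-labelled Bid peptide via terbium antibody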
Bcl-2-related protein A1 [6] = target: T1, Bcl-2-related protein A1; experiment: Bfl-1 binding inhibitors, SAR follow-up, biochemical, fluorescence polarization (AID 1070)
[7] = growth suppression of PTEN-null colon cells, dose response, cell-based, HCT116 PTEN knockout (AID 1047); type: functional;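 further: HCT116 colon tumor cells with PTEN knocked out; cells exposed to compound for 60 hours before readout; potency for loss of cell viability measured by luminescence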
Estrogen receptor beta = Estrogen receptor beta (Homo sapiens, UniProt Q92731); experiment: ERβ–SRC-3 coactivator interaction inhibitors, confirmation, orthogonal assay, biochemical, ELISA, streptavidin-HRP readout (AID 1060)
Sequence of Estrogen receptor beta (Q92731 whole entry): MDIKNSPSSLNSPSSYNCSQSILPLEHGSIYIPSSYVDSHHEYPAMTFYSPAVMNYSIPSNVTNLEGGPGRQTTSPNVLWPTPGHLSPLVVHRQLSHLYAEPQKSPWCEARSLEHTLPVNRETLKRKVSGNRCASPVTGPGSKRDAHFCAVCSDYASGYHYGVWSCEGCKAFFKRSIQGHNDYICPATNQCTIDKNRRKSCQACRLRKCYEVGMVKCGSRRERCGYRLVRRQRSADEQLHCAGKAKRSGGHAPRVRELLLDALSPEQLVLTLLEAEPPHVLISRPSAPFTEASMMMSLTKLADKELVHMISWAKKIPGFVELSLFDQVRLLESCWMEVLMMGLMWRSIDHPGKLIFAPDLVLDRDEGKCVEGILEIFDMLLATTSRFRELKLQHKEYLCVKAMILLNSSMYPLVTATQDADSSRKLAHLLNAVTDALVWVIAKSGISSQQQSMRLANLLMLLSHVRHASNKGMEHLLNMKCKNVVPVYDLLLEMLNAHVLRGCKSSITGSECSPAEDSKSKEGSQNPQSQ

[8] = growth suppression of beta-catenin-knockout colon cells, dose response, cell-based, HCT116, human colon tumor (AID 1045); type: functional;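 further: HCT116 colon tumor cells with beta catenin knocked out; cells exposed to compound for 60 hours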
[9] = inhibitors of firefly luciferase expression or activity, dose response, H4 neuroglioma cells, luminescence (AID 1990); type: functional, cell-based
BJ [10] = experiment: cytotoxicity toward BJ-TERT fibroblasts, dose response, cell-based, RAS-independent, luminescence (AID 1933); type: functional; conditions: Homo sapiens
[11] = Luminescence Cell-Based Dose Response HTS to Identify Inhibitors of 5'UTR Stem-Loop Driven Prion Protein mRNA Translation in H4 Neuroglioblastoma Cells. [Related pubchem assays: 1827 (Project Summary), 1813 (Primary HTS)]; type: functional
[12] = inhibitors of SNCA 5'UTR-driven reporter translation, confirmation, H4 neuroglioma cells, luminescence (AID 1988); type: functional, cell-based
BJ [13] = experiment: cells; type: functional, cell-based; conditions: Homo sapiens
[14] = microbe, parasite or virus in culture; type: functional; conditions: Mycobacterium tuberculosis
[15] = target: Heat shock protein HSP 90-alpha (Homo sapiens, UniProt P07900); experiment: Luminescence-based dose response biochemical high throughput screening assay for inhibitors of the Heat Shock Protein 90 (HSP90). [Related pubchem assays: 1831 (Summary AID.), 1846 (Confirmation screen.), 1789 (Primary screen.)]
BJ [16] = experiment: cytotoxicity toward BJ-TERT-LT-ST fibroblasts, dose response, cell-based, RAS-independent, luminescence (AID 1935); type: functional; conditions: Homo sapiens;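 further: BJ fibroblasts immortalized with TERT plus LT and ST oncogenes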
[17] = cytotoxicity toward DRD oncogenic fibroblasts, dose response, cell-based, non-viral oncogenic, luminescence (AID 1934); type: functional; conditions: Homo sapiens
[18] = target: T2, Ubiquitin-conjugating enzyme E2 N (Homo sapiens, UniProt P61088); type: functional;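 further: Dose-response confirmation in a TR-FRET assay detecting UBC13-driven polyubiquitin chain formation, inhibition measured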
T2 sequence (P61088 whole entry): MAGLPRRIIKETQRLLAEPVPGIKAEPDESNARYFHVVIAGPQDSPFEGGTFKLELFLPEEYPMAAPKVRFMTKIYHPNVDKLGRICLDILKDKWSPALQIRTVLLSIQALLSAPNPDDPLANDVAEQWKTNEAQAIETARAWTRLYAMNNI

[19] = inhibitors of intracellular T. cruzi replication, confirmation, NIH3T3 host cells, beta-gal luminescence (AID 2044); type: functional, cell-based;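 further: intracellular parasites grown in NIH/3T3 mouse fibroblasts as host cells; luminescent beta-galactosidase reporter signal from transgenic T. cruzi replicating inside host cells; inhibitors lower the luminescence signal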
[20] = cytotoxicity toward NIH3T3 fibroblasts, dose response, counter-screen, cell-based, ATP luminescence, mouse fibroblasts (AID 2010); type: functional;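 further: cells exposed to compound for about 90 hours before reading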
[21] = Shn3 3'UTR reporter inhibitors, dose response, cell-based, Clone20 osteoblasts, firefly luciferase, cherry-picked (AID 624132); type: functional;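 further: firefly luciferase luminescence from reporter carrying the Shn3 3'UTR in osteoblasts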
[22] = HepG2 cell cytotoxicity, dose response, cytotoxicity control for Shn3 inhibitor project, CellTiter-Glo, cherry-picked (AID 624134); type: functional, cell-based
[23] = control 3'UTR Renilla luciferase suppression, dose response, counter-screen for Shn3 inhibitor project, cell-based, Clone20-Shn3RL, cherry-picked (AID 624133); type: functional
[24] = Luminescence Cell-Based Dose Response to Identify Activators of 5'UTR Stem-Loop Driven Prion Protein mRNA Translation in H4-C Neuroglioblastoma Cells. [Related pubchem assays: 1829 (Project Summary), 1814 (Primary HTS)]; type: functional
[25] = Luminescence Cell-Based Dose Response HTS to Identify Activators of Luciferase Translation or Activity in H4 […] Cells. [Related pubchem assays: 1829 (Project Summary), 1814 (Primary HTS)]; type: functional
H4 = experiment: Luminescence Cell-Based Dose Response HTS to Identify Activators of 5'UTR Stem-Loop Driven Prion Protein mRNA Translation in H4 Neuroglioblastoma Cells. [Related pubchem assays: 1829 (Project Summary), 1814 (Primary HTS)]; type: functional; conditions: Homo sapiens
[26] = Luminescence Cell-Based Dose Response to Identify Activators of Luciferase Translation or Activity in H4-C Neuroglioblastoma Cells. [Related pubchem assays: 1829 (Project Summary), 1814 (Primary HTS)]; type: functional
[27] = Luminescence Cell-Based Dose Confirmation to Identify Activators of 5'UTR Stem-Loop Driven Alpha-Synuclein mRNA Translation in H4 Neuroglioblastoma Cells. [Related pubchem assays: 1829 (Project Summary), 1814 (Primary HTS)]; type: functional
[28] = P. falciparum late gametocyte killing, dose response, luminescence (AID 1117278); type: functional, cell-based;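 further: gametocytes exposed to compound for 24 hours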
[29] = Jurkat T cell cytotoxicity, dose response, cytotoxicity control for P. falciparum gametocyte viability project, luminescence (AID 1117277); type: functional, cell-based;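 further: potency reflects loss of cellular ATP meaning fewer viable cells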

With `CC(=O)Nc1ccc(NC(=O)CNC(=O)c2sc3ccccc3c2Cl)cc1` the IC50 [1] was 11.1 µM (not active) and the IC50 [2] was 15.5 µM (not active).
In the case of `CC1CCN(Cc2ccc(NC(=O)C3CCN(c4nnc(-n5cccc5)s4)CC3)cc2)CC1`, the IC50 (Bcl-2-related protein A1 [3]) is reported as > 100 µM (not active), the IC50 [4] is reported as > 100 µM (not active) and the IC50 (Bcl-2-related protein A1 [5]) is reported as 35.1 µM (active) and > 100 µM (not active). For the same molecule, the IC50 (Bcl-2-related protein A1 [6]) was 20.8 µM (active), the EC50 [7] was 21.4 µM (active) and the IC50 (Estrogen receptor beta) was 1.1 µM (not active). For the same molecule, the EC50 [8] was 61.6 µM (active).
For `COc1ccc(-c2cc3c(=O)n(CC(=O)NCCCN4CCC(Cc5ccccc5)CC4)ncn3n2)cc1`, the EC50 [9] was 9.23 µM (inconclusive), the EC50 (BJ [10]) was 10.1 µM (active) and the EC50 [11] was 11.4 µM (active). The EC50 [12] was 8.06 µM (active), the EC50 (BJ [13]) was 16.4 µM (active) and the CC50 [14] was 34.2 µM (active). The IC50 [15] was 6.82 µM (active), the EC50 (BJ [16]) was 12.9 µM (inconclusive) and the EC50 [17] was 8.08 µM (active). The IC50 [18] was > 20 µM (inactive).
In the case of `c1ccc(Nc2nc(NCC3CCCO3)c3ccccc3n2)cc1` (configuration not stated), the EC50 [19] is reported as < 0.1 µM (active), the EC50 [20] is reported as > 60 µM (not active) and the AC50 [21] is reported as 21.7 µM (active). For the same molecule, the AC50 [22] was 7.09 µM (active), the AC50 [23] was 4.84 µM (active) and the EC50 (cells) was 0.131 µM (active).
In the case of `Cc1cc(C(=O)ON=C(N)c2ccc(C(C)(C)C)cc2)no1`, the EC50 [24] is reported as 1.78 µM (active), the EC50 [25] is reported as < 0.1 µM (inconclusive) and the EC50 (H4) is reported as 110 µM (active). The EC50 [26] was 0.442 µM (active) and the EC50 [27] was 0.737 µM (active).
In the case of `COc1ccc(CC(=O)Nc2cccc(-c3ccc4nnc(C)n4n3)c2)cc1OC`, the IC50 [28] is reported as > 109 µM (inactive) and the IC50 [29] is reported as 35.6 µM (inactive).
